# According to ChEMBL document CHEMBL4334434, “Discovery of napabucasin derivatives for the treatment of tuberculosis” (2019):
# Assays:
# Format in all cases: functional
# [1] = system: Mycobacterium tuberculosis; experiment: Antimycobacterial activity against Mycobacterium tuberculosis H37Ra UAlRa incubated for 6 days by luminescence based assay; settings: 144 h
# [2] = system: Mycobacterium tuberculosis; experiment: Antimycobacterial activity against Mycobacterium tuberculosis K18
# [3] = system: Mycobacterium tuberculosis; experiment: Antimycobacterial activity against Mycobacterium tuberculosis K2
# [4] = system: Mycobacterium tuberculosis; experiment: Antimycobacterial activity against Mycobacterium tuberculosis K16
# [5] = system: Mycobacterium tuberculosis; experiment: Antimycobacterial activity against Mycobacterium tuberculosis K12
# [6] = system: Mycobacterium tuberculosis; experiment: Antimycobacterial activity against Mycobacterium tuberculosis K5
# [7] = system: Mycobacterium tuberculosis; experiment: Antimycobacterial activity against Mycobacterium tuberculosis H37Rv
# [8] = system: Mycobacterium tuberculosis; experiment: Antimycobacterial activity against Mycobacterium tuberculosis K4
compound,measurement,setting,value
Cn1cccc1/C=C/C(=O)c1cc2c(o1)C(=O)c1ccccc1C2=O,MIC,[1],≥ 30.4 µM
O=C(NCc1cccc(F)c1)c1cc2c(o1)C(=O)c1ccccc1C2=O,MIC,[1],0.9 µM
CCN1CCN(C(=O)c2cc3c(o2)C(=O)c2ccccc2C3=O)CC1,MIC,[1],7.4 µM
CC(Br)c1cc2c(o1)C(=O)c1ccccc1C2=O (configuration not stated),MIC,[1],16.5 µM
O=C(NCc1ccc(F)cc1)c1cc2c(o1)C(=O)c1ccccc1C2=O,MIC,[1],1.8 µM
O=C(NC1CCCCC1)c1cc2c(o1)C(=O)c1ccccc1C2=O,MIC,[1],7.7 µM
CC(O)c1cc2c(o1)C(=O)c1ccccc1C2=O (configuration not stated),MIC,[1],41.2 µM
O=C1c2ccccc2C(=O)c2oc(C(=O)N3CCCC3)cc21,MIC,[1],4.2 µM
O=C(/C=C/c1cccs1)c1cc2c(o1)C(=O)c1ccccc1C2=O,MIC,[1],29.9 µM
O=C1c2ccccc2C(=O)c2oc(C(=O)N3CCC(c4cccc(Cl)c4)CC3)cc21,MIC,[1],≥ 23.9 µM
CN1CCN(C(=O)c2cc3c(o2)C(=O)c2ccccc2C3=O)CC1,MIC,[1],7.7 µM
O=C(/C=C/c1ccccc1)c1cc2c(o1)C(=O)c1ccccc1C2=O,MIC,[1],≥ 30.4 µM
O=C(NCCc1ccccc1F)c1cc2c(o1)C(=O)c1ccccc1C2=O,MIC,[2],2.5 µg/mL
same,MIC,[3],0.5 µg/mL
same,MIC,[4],2.5 µg/mL
same,MIC,[5],2.5 µg/mL
same,MIC,[6],12.5 µg/mL
same,MIC,[7],0.5 µg/mL
same,MIC,[8],12.5 µg/mL
same,MIC,[1],1.7 µM
O=C1c2ccccc2C(=O)c2oc(C(=O)N3CCN(c4cccc(C(F)(F)F)c4)CC3)cc21,MIC,[2],2.5 µg/mL
same,MIC,[3],0.5 µg/mL
same,MIC,[4],1 µg/mL
same,MIC,[5],1 µg/mL
same,MIC,[6],25 µg/mL
same,MIC,[7],1 µg/mL
same,MIC,[8],25 µg/mL
same,MIC,[1],2.7 µM
O=C(NCCc1cccc(F)c1)c1cc2c(o1)C(=O)c1ccccc1C2=O,MIC,[1],0.9 µM
O=C(NCc1ccccc1F)c1cc2c(o1)C(=O)c1ccccc1C2=O,MIC,[1],1.8 µM
CC1(C)CCC(NC(=O)c2cc3c(o2)C(=O)c2ccccc2C3=O)CC1,MIC,[2],2.5 µg/mL
same,MIC,[3],0.25 µg/mL
same,MIC,[4],2.5 µg/mL
same,MIC,[5],2.5 µg/mL
same,MIC,[6],25 µg/mL
same,MIC,[7],0.5 µg/mL
same,MIC,[8],25 µg/mL
same,MIC,[1],3.56 µM
O=C(NCCc1ccc(F)cc1)c1cc2c(o1)C(=O)c1ccccc1C2=O,MIC,[1],1.7 µM
O=C1c2ccccc2C(=O)c2oc(C(=O)N3CCSCC3)cc21,MIC,[2],0.5 µg/mL
same,MIC,[3],0.25 µg/mL
same,MIC,[4],0.5 µg/mL
same,MIC,[5],0.5 µg/mL
same,MIC,[6],4 µg/mL
same,MIC,[7],0.5 µg/mL
same,MIC,[8],2 µg/mL
same,MIC,[1],1.9 µM
O=C1c2ccccc2C(=O)c2oc(C(=O)N3CCOCC3)cc21,MIC,[1],4 µM
O=C1CCN(C(=O)c2cc3c(o2)C(=O)c2ccccc2C3=O)CC1,MIC,[1],7.7 µM
O=C1c2ccccc2C(=O)c2oc(C(=O)N3CCCCC3)cc21,MIC,[2],2.5 µg/mL
same,MIC,[3],0.5 µg/mL
same,MIC,[4],1 µg/mL
same,MIC,[5],1 µg/mL
same,MIC,[6],12.5 µg/mL
same,MIC,[7],0.5 µg/mL
same,MIC,[8],12.5 µg/mL
same,MIC,[1],2 µM
O=C1c2ccccc2C(=O)c2oc(C(=O)N3CCC(c4ccc(F)cc4)CC3)cc21,MIC,[1],≥ 24.9 µM
O=C(NCCc1ccccc1)c1cc2c(o1)C(=O)c1ccccc1C2=O,MIC,[1],≥ 28.9 µM
CC(c1cc2c(o1)C(=O)c1ccccc1C2=O)N1CCCCC1 (configuration not stated),MIC,[1],32.3 µM
O=C(NCCN1CCCCC1)c1cc2c(o1)C(=O)c1ccccc1C2=O,MIC,[1],3.6 µM
CC(=O)c1cc2c(o1)C(=O)c1ccccc1C2=O [NAPABUCASIN],MIC,[1],10.4 µM
O=C(NCCN1CCOCC1)c1cc2c(o1)C(=O)c1ccccc1C2=O,MIC,[1],7.1 µM
O=C(/C=C/c1ccc(O)cc1)c1cc2c(o1)C(=O)c1ccccc1C2=O,MIC,[1],≥ 29.1 µM
COC(=O)CC1CCN(C(=O)c2cc3c(o2)C(=O)c2ccccc2C3=O)CC1,MIC,[1],3.28 µM
O=C(NCCc1ccc(Cl)cc1)c1cc2c(o1)C(=O)c1ccccc1C2=O,MIC,[1],6.6 µM
CC(c1cc2c(o1)C(=O)c1ccccc1C2=O)N1CCOCC1 (configuration not stated),MIC,[1],32.1 µM
